Assay results as given in patent US8431606B2, “Medicament for treating schizophrenia comprising cilostazol” (Otsuka Pharmaceutical Co., Ltd., priority 2007, dated 2013).

Columns and labels:
Assay type in all cases: in vivo
[1] = tested on: model animals prepared with phencyclidine; assay: re-recognizing test for a new object in model animals prepared with phencyclidine; conditions: male ICR mice, phencyclidine 10 mg/kg s.c. 10 days
Protocol: Male ICR mice (6 weeks old, 25-30 g, purchased from Japan SLC, Inc.) were used as experimental animals. The experimental procedure was approved by the laboratory animal ethics committee in the Graduate School of Medicine and School of Medicine, Chiba University. Phencyclidine was subcutaneously administered to the mice in 10 mg/kg once a day for 10 days. […] Twenty four hours after the final administration, re-recognizing test for a new object was carried out. The re-recognizing test for a new object was carried out using a black open-field (50.8×50.8×25.4 cm). The mice were made to be trained in the open-field for three days before starting the re-recognizing test for a new object. Two objects which have almost the same size but different shapes and colors were set separating off in a distance of 35.5 cm, and then the mice were made to seek for 10 minutes. After the seeking, the mice were put back to the gauge. Twenty four hours after the first seeking, a memory retention test was carried out. On this memory retention test, one of the objects was replaced by a new one. The mice were made to seek for 5 minutes, and the time which was taken to seek each object was recorded. The results were shown as a ratio of the seeking time of the new object against that of the two objects. The data were shown as mean±standard deviation. The statistical analyses thereof were carried out using one-way ANOVA and post-hoc Bonferroni test. A p-value of 0.05 or less was considered as a statistical significance.

[2] = tested on: locomotion of mice enhanced by administering dizocilpine; assay: dizocilpine-induced hyperlocomotion in mice; conditions: male ddY mice; cilostazol 0.03-3.0 mg/kg orally 30 minutes before dizocilpine 0.1 mg/kg s.c.; locomotion measured for 2 hours
Protocol: In this experiment, cilostazol was studied about the effect affecting the locomotion of mice which was enhanced by administering dizocilpine.
Male ddY mice (7-8 weeks old) were put in a scanning apparatus of spontaneous motor activity (SCANET SV-10, Melquest, Toyama, Japan). After 30 minutes, vehicle (0.3% CMC) or cilostazol (0.03, 0.1, 0.3, 1.0, and 3.0 mg/kg) was orally administered to the mice, and after additional 30 minutes dizocilpine (0.1 mg/kg) was administered subcutaneously. Then, the locomotion of the mice was measured for 2 hours.

[3] = tested on: dizocilpine-induced PPI deficits in mice; assay: prepulse inhibition of the acoustic startle reflex, dizocilpine-induced PPI deficits in mice; conditions: dizocilpine 0.1 mg/kg, cilostazol administered one hour before testing, dose dependent manner
Protocol: The test animals were prepared by similar means of the above Example 2. Cilostazol was administered one hour before testing. Testing was conducted in eight startle devices each consisting of a Plexiglas cylinder (5 cm in diameter) mounted on a Plexiglas platform in a ventilated sound attenuated cubicle with a high-frequency loudspeaker producing all acoustic stimuli. The background noise of each chamber was 65 dB. Movements within the cylinder were detected and transduced by a piezoelectric accelerometer attached to the Plexiglas base and digitized and stored by a computer. Beginning at the stimulus onset, readings were recorded to obtain the animals' startle amplitude. Each section was initiated with a 10 minutes acclimation period followed by six successive trials, which were not included in the analysis. Startle pulse alone (ST110, 110 dB/40 msec); eight different prepulse trials in which either 20-msec-long 69, 73, 77, and 81 dB stimuli were presented alone (P69, P73, P77, P81) or preceded the 110 dB pulse by 100 msec (PP69, PP73, PP77, PP81); and finally one trial in which only the background noise was presented to measure the baseline movements in the cylinder. All trials were presented in a pseudorandom order, and the average intertrial interval (ITI) was […]. The startle data and percentage prepulse inhibition (PPI) were analyzed by MANOVA (two-ways ANOVA).

O=C1CCc2cc(OCCCCc3nnnn3C3CCCCC3)ccc2N1 [cilostazol, 6-[4-(1-cyclohexyl-1H-tetrazol-5-yl)butoxy]-3,4-dihydrocarbostyril]
condition of schizophrenia caused by phencyclidine (ratio of the seeking time of the new object) ([1]; cilostazol 3 mg/kg orally once a day for two weeks): improved significantly
condition of schizophrenia caused by phencyclidine (ratio of the seeking time of the new object) ([1]; cilostazol 10 mg/kg orally once a day for two weeks): improved significantly
condition of schizophrenia caused by phencyclidine (ratio of the seeking time of the new object) ([1]; cilostazol 30 mg/kg orally once a day for two weeks): improved significantly
condition of schizophrenia caused by phencyclidine (ratio of the seeking time of the new object) ([1]; cilostazol orally once a day for two weeks, dose-dependently): improved
locomotion enhanced by administering dizocilpine [2]: significantly inhibited
PPI deficits caused by administration of dizocilpine [3]: significantly inhibited
